Experimental data published in ChEMBL document CHEMBL2073861, “Molecular identification of a novel carnitine transporter specific to human testis. Insights into the mechanism of carnitine recognition” (J Biol Chem, 2002).
Values belong to the molecule of their own block, whether it stands above or below them.

Tests used:
[1] = target: T1, Organic cation/carnitine transporter 2 (Homo sapiens, UniProt O76082); experiment: TP_TRANSPORTER: inhibition of carnitine transport by Carnitine-related compound-8A at 20uM in Xenopus laevis oocytes; format: functional, cell-based, Oocyte; set-up: scale not given: the % may be the effect or the level left; conditions: probe carnitine, read-out: Activity
T1 sequence (O76082 whole entry): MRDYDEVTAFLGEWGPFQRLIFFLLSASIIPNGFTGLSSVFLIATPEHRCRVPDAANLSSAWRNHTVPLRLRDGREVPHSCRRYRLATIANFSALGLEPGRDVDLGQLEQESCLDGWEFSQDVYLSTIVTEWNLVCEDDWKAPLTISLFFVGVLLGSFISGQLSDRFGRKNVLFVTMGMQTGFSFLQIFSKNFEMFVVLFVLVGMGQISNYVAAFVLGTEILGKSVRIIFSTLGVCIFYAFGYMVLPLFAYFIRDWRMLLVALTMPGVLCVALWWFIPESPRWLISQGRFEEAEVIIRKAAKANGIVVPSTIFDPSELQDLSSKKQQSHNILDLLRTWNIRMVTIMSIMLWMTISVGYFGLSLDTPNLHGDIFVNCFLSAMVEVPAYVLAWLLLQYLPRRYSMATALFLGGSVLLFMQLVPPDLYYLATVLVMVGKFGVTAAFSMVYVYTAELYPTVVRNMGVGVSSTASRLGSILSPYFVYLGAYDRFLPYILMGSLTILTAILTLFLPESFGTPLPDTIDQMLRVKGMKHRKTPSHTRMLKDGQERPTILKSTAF

[2] = target: Solute carrier family 22 member 16 (Homo sapiens) (UniProt Q86VW1); experiment: TP_TRANSPORTER: inhibition of carnitine uptake by Carnitine-related compound-8A at 20uM in Xenopus laevis oocytes; set-up: scale not given: the % may be the effect or the level left; conditions: Oocyte
[3] = target: T1, Organic cation/carnitine transporter 2; experiment: TP_TRANSPORTER: inhibition of carnitine uptake by Carnitine-related compound-14 at 20uM in Xenopus laevis oocytes; format: functional, cell-based, Oocyte; set-up: scale not given: the % may be the effect or the level left; conditions: probe carnitine, read-out: Activity
[4] = target: Solute carrier family 22 member 16 (Homo sapiens) (UniProt Q86VW1); experiment: TP_TRANSPORTER: inhibition of carnitine uptake by Carnitine-related compound-18 at 20uM in Xenopus laevis oocytes; set-up: scale not given: the % may be the effect or the level left; conditions: Oocyte
[5] = target: Solute carrier family 22 member 16 (Homo sapiens) (UniProt Q86VW1); experiment: TP_TRANSPORTER: inhibition of carnitine uptake by Carnitine-related compound-17 at 20uM in Xenopus laevis oocytes; set-up: scale not given: the % may be the effect or the level left; conditions: Oocyte
[6] = target: T1, Organic cation/carnitine transporter 2; experiment: TP_TRANSPORTER: inhibition of carnitine transport by Carnitine-related compound-3A at 20uM in Xenopus laevis oocytes; format: functional, cell-based, Oocyte; set-up: scale not given: the % may be the effect or the level left; conditions: probe carnitine, read-out: Activity
[7] = target: Solute carrier family 22 member 16 (Homo sapiens) (UniProt Q86VW1); experiment: TP_TRANSPORTER: inhibition of carnitine uptake by Carnitine-related compound-3A at 20uM in Xenopus laevis oocytes; set-up: scale not given: the % may be the effect or the level left; conditions: Oocyte
[8] = target: T1, Organic cation/carnitine transporter 2; experiment: TP_TRANSPORTER: inhibition of carnitine uptake by Carnitine-related compound-4A at 20uM in Xenopus laevis oocytes; format: functional, cell-based; set-up: scale not given: the % may be the effect or the level left; conditions: oocyte
[9] = target: Solute carrier family 22 member 16 (Homo sapiens) (UniProt Q86VW1); experiment: TP_TRANSPORTER: inhibition of carnitine uptake by Carnitine-related compound-4A at 20uM in Xenopus laevis oocytes; set-up: scale not given: the % may be the effect or the level left; conditions: Oocyte
[10] = target: Solute carrier family 22 member 16 (Homo sapiens) (UniProt Q86VW1); experiment: TP_TRANSPORTER: inhibition of carnitine uptake by Carnitine-related compound-6A at 20uM in Xenopus laevis oocytes; set-up: scale not given: the % may be the effect or the level left; conditions: Oocyte
[11] = target: Solute carrier family 22 member 16 (Homo sapiens) (UniProt Q86VW1); experiment: TP_TRANSPORTER: inhibition of carnitine uptake by Carnitine-related compound-10A at 20uM in Xenopus laevis oocytes; set-up: scale not given: the % may be the effect or the level left; conditions: Oocyte
[12] = target: T1, Organic cation/carnitine transporter 2; experiment: TP_TRANSPORTER: inhibition of carnitine uptake by Carnitine-related compound-10A at 20uM in Xenopus laevis oocytes; format: functional, cell-based, Oocyte; set-up: scale not given: the % may be the effect or the level left; conditions: probe carnitine, read-out: Activity
[13] = target: T1, Organic cation/carnitine transporter 2; experiment: TP_TRANSPORTER: inhibition of carnitine uptake by Carnitine-related compound-5A at 20uM in Xenopus laevis oocytes; format: functional, cell-based, Oocyte; set-up: scale not given: the % may be the effect or the level left; conditions: probe carnitine, read-out: Activity
[14] = target: Solute carrier family 22 member 16 (Homo sapiens) (UniProt Q86VW1); experiment: TP_TRANSPORTER: inhibition of carnitine uptake by Carnitine-related compound-5A at 20uM in Xenopus laevis oocytes; set-up: scale not given: the % may be the effect or the level left; conditions: Oocyte
[15] = target: T2, Solute carrier family 22 member 16 (Homo sapiens, UniProt Q86VW1); experiment: TP_TRANSPORTER: inhibition of carnitine in Xenopus laevis oocytes; format: functional, cell-based, Oocyte
T2 sequence (Q86VW1 whole entry): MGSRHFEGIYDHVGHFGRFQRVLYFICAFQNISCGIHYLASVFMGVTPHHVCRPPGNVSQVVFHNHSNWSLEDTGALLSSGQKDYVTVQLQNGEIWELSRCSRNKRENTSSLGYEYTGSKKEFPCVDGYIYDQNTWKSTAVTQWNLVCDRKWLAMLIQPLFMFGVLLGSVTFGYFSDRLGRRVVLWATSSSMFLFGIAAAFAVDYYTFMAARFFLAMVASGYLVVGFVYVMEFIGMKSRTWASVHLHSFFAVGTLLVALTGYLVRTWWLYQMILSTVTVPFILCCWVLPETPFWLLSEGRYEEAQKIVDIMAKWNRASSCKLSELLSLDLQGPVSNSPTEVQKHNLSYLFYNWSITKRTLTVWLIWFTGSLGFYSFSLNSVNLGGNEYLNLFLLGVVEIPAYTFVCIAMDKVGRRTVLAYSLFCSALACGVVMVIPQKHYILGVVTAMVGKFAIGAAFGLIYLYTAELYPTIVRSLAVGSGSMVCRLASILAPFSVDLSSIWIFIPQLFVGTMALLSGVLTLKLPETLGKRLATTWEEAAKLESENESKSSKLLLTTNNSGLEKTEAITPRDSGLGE

[16] = target: Solute carrier family 22 member 16 (Homo sapiens) (UniProt Q86VW1); experiment: TP_TRANSPORTER: inhibition of carnitine uptake by Carnitine-related compound-13 at 20uM in Xenopus laevis oocytes; set-up: scale not given: the % may be the effect or the level left; conditions: Oocyte
[17] = target: T1, Organic cation/carnitine transporter 2; experiment: TP_TRANSPORTER: inhibition of carnitine uptake by Carnitine-related compound-13 at 20uM in Xenopus laevis oocytes; format: functional, cell-based, Oocyte; set-up: scale not given: the % may be the effect or the level left; conditions: probe carnitine, read-out: Activity
[18] = target: Solute carrier family 22 member 16 (Homo sapiens) (UniProt Q86VW1); experiment: TP_TRANSPORTER: inhibition of carnitine uptake by Carnitine-related compound-12A at 20uM in Xenopus laevis oocytes; set-up: scale not given: the % may be the effect or the level left; conditions: Oocyte
[19] = target: T1, Organic cation/carnitine transporter 2; experiment: TP_TRANSPORTER: inhibition of carnitine transport by Carnitine-related compound-9A at 20uM in Xenopus laevis oocytes; format: functional, cell-based, Oocyte; set-up: scale not given: the % may be the effect or the level left; conditions: probe carnitine, read-out: Activity
[20] = target: Solute carrier family 22 member 16 (Homo sapiens) (UniProt Q86VW1); experiment: TP_TRANSPORTER: inhibition of carnitine uptake by Carnitine-related compound-9A at 20uM in Xenopus laevis oocytes; set-up: scale not given: the % may be the effect or the level left; conditions: Oocyte
[21] = target: Solute carrier family 22 member 16 (Homo sapiens) (UniProt Q86VW1); experiment: TP_TRANSPORTER: inhibition of carnitine uptake by Carnitine-related compound-11A at 20uM in Xenopus laevis oocytes; set-up: scale not given: the % may be the effect or the level left; conditions: Oocyte
[22] = target: T2, Solute carrier family 22 member 16; experiment: TP_TRANSPORTER: inhibition of carnitine transport by Octanoyl-carnitine at 5uM in Xenopus laevis oocytes; format: functional, cell-based; set-up: scale not given: the % may be the effect or the level left; conditions: oocyte
[23] = target: T2, Solute carrier family 22 member 16; experiment: TP_TRANSPORTER: inhibition of carnitine transport by Acetyl-L-carnitine at 5uM in Xenopus laevis oocytes; format: functional, cell-based, Oocyte; set-up: scale not given: the % may be the effect or the level left; conditions: probe carnitine, read-out: Activity
[24] = target: T1, Organic cation/carnitine transporter 2; experiment: TP_TRANSPORTER: inhibition of carnitine uptake by Carnitine-related compound-2A at 20uM in Xenopus laevis oocytes; format: functional, cell-based, Oocyte; set-up: scale not given: the % may be the effect or the level left; conditions: probe carnitine, read-out: Activity
[25] = target: Solute carrier family 22 member 16 (Homo sapiens) (UniProt Q86VW1); experiment: TP_TRANSPORTER: inhibition of carnitine uptake by Carnitine-related compound-2A at 20uM in Xenopus laevis oocytes; set-up: scale not given: the % may be the effect or the level left; conditions: Oocyte
[26] = target: Solute carrier family 22 member 16 (Homo sapiens) (UniProt Q86VW1); experiment: TP_TRANSPORTER: inhibition of carnitine uptake by Carnitine-related compound-7A at 20uM in Xenopus laevis oocytes; set-up: scale not given: the % may be the effect or the level left; conditions: Oocyte
[27] = target: T1, Organic cation/carnitine transporter 2; experiment: TP_TRANSPORTER: inhibition of carnitine transport by Carnitine-related compound-7A at 20uM in Xenopus laevis oocytes; format: functional, cell-based, Oocyte; set-up: scale not given: the % may be the effect or the level left; conditions: probe carnitine, read-out: Activity
[28] = substrate: C[N+](C)(C)CC(O)CC(=O)[O-]; experiment: TP_TRANSPORTER: uptake in Xenopus laevis oocytes; format: functional, cell-based, Oocyte

Molecule: CC[N+](C)(CC)CCCCCC(=O)O
- activity at 20 µM [1]: 20%
- Activity [2]: 30%

Molecule: CC[N+](C)(CC)CCCCC(=O)O
- activity at 20 µM [6]: 20%
- Activity [7]: 20%

Molecule: CCC[N+](CCC)(CCC)CCCCC(=O)O
- Activity [10]: 70%

Molecule: C[N+](C)(C)CCCCCCC(=O)O
- Activity [11]: 40%
- activity at 20 µM [12]: 50%

Molecule: CC[N+](CCCCC(=O)O)(C(C)C)C(C)C
- activity at 20 µM [13]: 40%
- Activity [14]: 20%

Molecule: CC[N+](C)(CC)CCCCCCC(=O)O
- Activity [21]: 50%

Molecule: CCCCCCCC(=O)OC(CC(=O)O)C[N+](C)(C)C.[Cl-] (stereo not drawn) [Octanoyl-carnitine]
- Activity [22]: 70%

Molecule: CC(=O)O[C@H](CC(=O)[O-])C[N+](C)(C)C [ACETYLCARNITINE]
- activity at 5 µM [23]: 70%

Molecule: C[N+](C)(C)CCCCC(=O)O
- activity at 20 µM [24]: 40%
- Activity [25]: 20%

Molecule: C[N+](C)(C)CCCCCC(=O)O
- Activity [26]: 20%
- activity at 20 µM [27]: 35%

B1: Solute carrier family 22 member 16 (Homo sapiens) (protein)
chain: T2 sequence (Q86VW1 whole entry)
- Km [28]: 20 µM

Further lines, results first:

- activity at 20 µM [3]: 70%
Molecule: CC[N+](CC)(CC)CC(O)CC(=O)[O-] (stereo not drawn)

- Activity [4]: 20%
Molecule: CC[N+](CC)(CC)CC(O)CCC(=O)[O-] (stereo not drawn)

- Activity [5]: 20%
Molecule: CC[N+](C)(CC)CC(O)CCC(=O)[O-] (stereo not drawn)

- Activity [8]: 50%
- Activity [9]: 20%
Molecule: CC[N+](CC)(CC)CCCCC(=O)O.[Cl-]

- Ki [15]: 30 µM
Molecule: C[N+](C)(C)C[C@@H](O)CC(=O)[O-] [D-CARNITINE]

- Activity [16]: 20%
- activity at 20 µM [17]: 40%
Molecule: C[N+](C)(C)CC(O)CC(=O)[O-] (stereo not drawn) [CARNITINE]

- Activity [18]: 50%
Molecule: CC[N+](CC)(CC)CCCCCCC(=O)O

- activity at 20 µM [19]: 30%
- Activity [20]: 20%
Molecule: CC[N+](CC)(CC)CCCCCC(=O)O
